In patent publication US20120329749A1, “Methods Of Preventing Or Treating Disease States Related To Certain Metabolic Abnormalities” (priority 2011, published 2012):

System: erectile dysfunction
Assay: Patient-reported erectile dysfunction symptoms
Description: The patient was placed on a regimen of 5,0 mg L-methylfolate and 2 mg methyl-B12 per day.
The patient was placed on a regimen of 2.8 mg L-methylfolate and 2 mg methyl-B12 per day.
The patient was placed on a regimen of 5.0 mg L-methylfolate and 2 mg methyl-B12 per day.
The patient was placed on a regimen of L-methylfolate, methyl-B12, and pyridoxal-5-phosphate (PSP; active vitamin B6) twice per day.
The patient was placed on a regimen of L-methylfolate, methyl-B12, and pyridoxal-5-phosphate (P5P; active vitamin B6) twice per day.

## CCCc1nn(C)c2c(=O)[nH]c(-c3cc(S(=O)(=O)N4CCN(C)CC4)ccc3OCC)nc12 [Viagra]
Patient 20, 50 mg for 2 months
  effect on erectile dysfunction (patient history): ineffective
Patient 21, 20 mg for 1 month
  effect on erectile dysfunction (patient history): ineffective
